Measured values taken from US20260001889A1, “COMPOSITIONS USEFUL FOR MODULATING SPLICING” (Skyhawk Therapeutics, Inc., priority 2022, published 2026).

Key:
[1] = test system: ATXN3 transcripts containing exon 4; assay: ATXN3 Quantitative Splicing Assay (qPCR, E4E5 primers/probe); format: cell-based; settings: Homo sapiens, SK-N-MC cells, compounds for 24 h
How it was run: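 Exon 4-containing ATXN3 transcripts are quantified by TaqMan qPCR (E4E5 primers/probe) on cell-lysate cDNA, with total ATXN3 from the E8E9 set. Source cells: human neuroblastoma SK-N-MC, exposed for 24 h to compound at 30 μM down to 0.6 nM.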

[2] = test system: total ATXN3 protein; assay: ATXN3 Total Protein Assay (Mesoscale Discovery, SK-N-MC cells); format: cell-based, Human; settings: incubation for 48 hours, MSD assay
Description: Example 35: ATXN3 Total Protein Assay
Human neuroblastoma SK-N-MC cells were seeded at 10,000 cells/well in 384 well plates one day prior to compound treatment. The concentrations of compounds were tested at appropriate doses ranging from 30 μM to 0.6 nM. After incubation for 48 hours, the cells were lysed with 25 μL of lysis buffer containing protease inhibitors, and total ATXN3 protein levels were assessed by Mesoscale Discovery (MSD) assay developed with one pair of anti-ATXN3 antibodies. The capture and detect antibodies were raised in mouse and rabbit respectively. Anti-rabbit MSD-ST antibody was used for secondary antibody.
ATXN3 recombinant protein was used for standards. The readouts were captured with 35 μL of MSD read buffer and multi-array 384-well high binding plates.

[3] = test system: ATXN3-HiBiT protein; assay: ATXN3 Total Protein Assay (Kelly-ATXN3-HiBiT luminescence); format: cell-based; settings: Kelly-ATXN3-HiBiT cells, 48 h after addition of compound
How it was run: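 Endogenous ATXN3-HiBiT protein in knock-in Kelly neuroblastoma cells measured by lytic HiBiT luminescence 48 h post-compound (added 24 h after seeding 2000 cells/well). Values are fold changes relative to DMSO, with viability from a parallel CellTiter-Glo plate.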

Row | Structure (SMILES) | IC50 [1] | IC50 [2] | EC50 [3]
1 | C#Cc1cc(NCc2cccs2)c2oc(C[C@H](C)N)c(C)c2n1 [Compound 40, 2-[(S)-2-aminopropyl]-5-ethynyl-3-methyl-7-thenylamino-1-oxa-4-azaindene] | 501 to 5000 nM | 501 to 5000 nM | 501 to 5000 nM
2 | Cc1c(C[C@@H](N)[C@H](C)F)oc2c(NCc3cccs3)cc(Cl)nc12 [Compound 41, 2-[(2R,3S)-2-amino-3-fluorobutyl]-5-chloro-3-methyl-7-thenylamino-1-oxa-4-azaindene] | 0.01 to 100 nM | 0.01 to 100 nM | 0.01 to 100 nM
3 | C[C@H](F)[C@H](N)Cc1oc2c(NCc3cccs3)cc(Cl)nc2c1Br [Compound 43, 2-[(2R,3S)-2-amino-3-fluorobutyl]-3-bromo-5-chloro-N-(thiophen-2-ylmethyl)furo[3,2-b]pyridin-7-amine] | 0.01 to 100 nM | 0.01 to 100 nM | 0.01 to 100 nM
4 | C[C@@H](F)[C@H](N)Cc1oc2c(NCc3cccs3)cc(Cl)nc2c1Br [Compound 44, 2-[(2R,3R)-2-amino-3-fluorobutyl]-3-bromo-5-chloro-7-thenylamino-1-oxa-4-azaindene] | 101 to 500 nM | 101 to 500 nM | 101 to 500 nM
5 | C[C@H](N)Cc1oc2c(NCc3nccs3)cc(Cl)nc2c1Br [Compound 45, 2-[(S)-2-aminopropyl]-3-bromo-5-chloro-7-{[(1,3-thiazol-2-yl)methyl]amino}-1-oxa-4-azaindene] | 101 to 500 nM | 101 to 500 nM | 0.01 to 100 nM
6 | COC[C@H](N)Cc1oc2c(NCc3ccncc3)cc(Cl)nc2c1Br [Compound 48, (R)-2-(2-amino-3-methoxypropyl)-3-bromo-5-chloro-N-(pyridin-4-ylmethyl)furo[3,2-b]pyridin-7-amine] | 101 to 500 nM | 101 to 500 nM | 101 to 500 nM
7 | COC[C@H](N)Cc1oc2c(NCc3ccccc3)cc(Cl)nc2c1Cl [Compound 51, 2-[(R)-2-amino-3-methoxypropyl]-7-benzylamino-3,5-dichloro-1-oxa-4-azaindene] | 101 to 500 nM | 101 to 500 nM | 101 to 500 nM
8 | COC[C@H](N)Cc1oc2c(NCc3ccco3)cc(Cl)nc2c1Cl [Compound 52, 2-[(R)-2-amino-3-methoxypropyl]-3,5-dichloro-7-(furfurylamino)-1-oxa-4-azaindene] | 0.01 to 100 nM | 101 to 500 nM | 0.01 to 100 nM
9 | COC[C@H](N)Cc1oc2c(NCc3nccs3)cc(Cl)nc2c1Cl [Compound 53, 2-[(R)-2-amino-3-methoxypropyl]-3,5-dichloro-7-{[(1,3-thiazol-2-yl)methyl]amino}-1-oxa-4-azaindene] | 101 to 500 nM | 101 to 500 nM | 101 to 500 nM
10 | C[C@H](N)Cc1oc2c(NCc3nccs3)cc(Cl)nc2c1Cl [Compound 57, 2-[(S)-2-aminopropyl]-3,5-dichloro-7-{[(1,3-thiazol-2-yl)methyl]amino}-1-oxa-4-azaindene] | 101 to 500 nM | 101 to 500 nM | 101 to 500 nM
11 | Cc1cc(NCc2cccs2)c2oc(C[C@@H](N)CO)c(Br)c2n1 [Compound 59, (R)-2-amino-3-(3-bromo-5-methyl-7-thenylamino-1-oxa-4-aza-2-indenyl)-1-propanol] | 101 to 500 nM | 101 to 500 nM | 0.01 to 100 nM
12 | N#Cc1cc(NCc2cccs2)c2oc(C[C@@H](N)CO)c(Br)c2n1 [Compound 60, 2-[(R)-2-amino-3-hydroxypropyl]-3-bromo-7-thenylamino-1-oxa-4-aza-5-indenecarbonitrile] | 101 to 500 nM | 101 to 500 nM | 101 to 500 nM
13 | C#Cc1c(C[C@H](C)N)oc2c(NCc3nccs3)cc(Cl)nc12 [Compound 62, 2-[(S)-2-aminopropyl]-5-chloro-3-ethynyl-7-{[(1,3-thiazol-2-yl)methyl]amino}-1-oxa-4-azaindene] | 101 to 500 nM | 101 to 500 nM | 0.01 to 100 nM
14 | C#Cc1c(C[C@H](C)N)oc2c(NCc3cccs3)cc(Cl)nc12 [Compound 63, 2-[(2S)-2-aminopropyl]-5-chloro-3-ethynyl-N-(thiophen-2-ylmethyl)furo[3,2-b]pyridin-7-amine] | 0.01 to 100 nM | 0.01 to 100 nM | 0.01 to 100 nM
15 | C#Cc1c(C[C@H](C)N)oc2c(NCc3ccco3)cc(Cl)nc12 [Compound 64, 2-[(S)-2-aminopropyl]-5-chloro-3-ethynyl-7-(furfurylamino)-1-oxa-4-azaindene] | 0.01 to 100 nM | 0.01 to 100 nM | 0.01 to 100 nM
16 | NC(Cc1oc2c(NCc3cccs3)cc(Cl)nc2c1Br)CC1(F)CC1 (stereo not drawn) [Compound 85, 2-[2-amino-3-(1-fluorocyclopropyl)propyl]-3-bromo-5-chloro-7-thenylamino-1-oxa-4-azaindene] | 101 to 500 nM | 101 to 500 nM | 101 to 500 nM
17 | C[C@H](F)[C@H](N)Cc1oc2c(NCc3nccs3)cc(Cl)nc2c1Br [Compound 90, 2-[(2R,3S)-2-amino-3-fluorobutyl]-3-bromo-5-chloro-7-{[(1,3-thiazol-2-yl)methyl]amino}-1-oxa-4-azaindene] | 0.01 to 100 nM | 0.01 to 100 nM | 0.01 to 100 nM

The remaining lines, values ahead:

Row | IC50 [1] | IC50 [2] | EC50 [3] | Structure (SMILES)
18 | 0.01 to 100 nM | 0.01 to 100 nM | 0.01 to 100 nM | COC[C@H](N)Cc1oc2c(NCc3cccs3)cc(Cl)nc2c1Br [Compound 37, 2-[(R)-2-amino-3-methoxypropyl]-3-bromo-5-chloro-7-thenylamino-1-oxa-4-azaindene]
19 | 0.01 to 100 nM | 0.01 to 100 nM | 0.01 to 100 nM | COC[C@H](N)Cc1oc2c(NCc3cccs3)cc(Cl)nc2c1Cl [Compound 50, 2-[(R)-2-amino-3-methoxypropyl]-3,5-dichloro-7-thenylamino-1-oxa-4-azaindene]
20 | 0.01 to 100 nM | 0.01 to 100 nM | 0.01 to 100 nM | N[C@@H](CF)Cc1oc2c(NCc3cccs3)cc(Cl)nc2c1Br [Compound 58, 2-[(R)-2-amino-3-fluoropropyl]-3-bromo-5-chloro-7-thenylamino-1-oxa-4-azaindene]
21 | 0.01 to 100 nM | 0.01 to 100 nM | 0.01 to 100 nM | C#Cc1c(C[C@@H](N)COC)oc2c(NCc3cccs3)cc(Cl)nc12 [Compound 61, 2-[(R)-2-amino-3-methoxypropyl]-5-chloro-3-ethynyl-7-thenylamino-1-oxa-4-azaindene]
22 | 101 to 500 nM | 101 to 500 nM | 101 to 500 nM | C#Cc1c(C[C@@H](N)COC)oc2c(NCc3nccs3)cc(Cl)nc12 [Compound 65, 2-[(R)-2-amino-3-methoxypropyl]-5-chloro-3-ethynyl-7-{[(1,3-thiazol-2-yl)methyl]amino}-1-oxa-4-azaindene]
23 | 0.01 to 100 nM | 0.01 to 100 nM | 0.01 to 100 nM | C#Cc1c(C[C@@H](N)COC)oc2c(NCc3ccco3)cc(Cl)nc12 [Compound 66, 2-[(R)-2-amino-3-methoxypropyl]-5-chloro-3-ethynyl-7-(furfurylamino)-1-oxa-4-azaindene]
24 | 0.01 to 100 nM | 0.01 to 100 nM | 0.01 to 100 nM | C#CC[C@H](N)Cc1oc2c(NCc3cccs3)cc(Cl)nc2c1Br [Compound 77, 2-[(S)-2-amino-4-pentynyl]-3-bromo-5-chloro-7-thenylamino-1-oxa-4-azaindene]
25 | 0.01 to 100 nM | 0.01 to 100 nM | 101 to 500 nM | C#C[C@H](N)Cc1oc2c(NCc3cccs3)cc(Cl)nc2c1Br [Compound 88, 2-[(R)-2-amino-3-butynyl]-3-bromo-5-chloro-7-thenylamino-1-oxa-4-azaindene]
